Laboratory results from patent publication US11629129B2, “Microbiocidal picolinamide derivatives” (SYNGENTA PARTICIPATIONS AG, priority 2018, dated 2023).

Columns and labels:
[1] = system: Puccinia recondita f. sp. tritici; assay: Puccinia recondita f. sp. tritici/Wheat/Leaf Disc Preventative (Brown Rust); assay type: in vivo; conditions: foliar, 200 ppm in the formulation, wheat leaf segments cv. Kanzler, inoculated 1 day after application, assessed 7-9 days after application, compared to untreated, read-out: disease control
Method: Puccinia recondita f. sp. tritici/Wheat/Leaf Disc Preventative (Brown Rust) Wheat leaf segments cv. Kanzler are placed on agar in multiwell plates (24-well format) and sprayed with the formulated test compound diluted in water. The leaf disks are inoculated with a spore suspension of the fungus 1 day after application. The inoculated leaf segments are incubated at 19° C. and 75% rh under a light regime of 12 h light/12 h darkness in a climate cabinet and the activity of a compound is assessed as percent disease control compared to untreated when an appropriate level of disease damage appears in untreated check leaf segments (7-9 days after application).

[2] = system: Phaeosphaeria nodorum (Septoria nodorum); assay: Phaeosphaeria nodorum (Septoria nodorum)/Wheat/Leaf Disc Preventative (Glume Blotch); assay type: in vivo; conditions: Parastagonospora nodorum, foliar; 200 ppm in the formulation; wheat leaf segments cv. Kanzler, inoculated 2 days after application, assessed 5-7 days after application; compared to untreated; read-out: disease control
Method: Phaeosphaeria nodorum (Septoria nodorum)/Wheat/Leaf Disc Preventative (Glume Blotch) Wheat leaf segments cv. Kanzler are placed on agar in a multiwell plate (24-well format) and sprayed with the formulated test compound diluted in water. The leaf disks are inoculated with a spore suspension of the fungus 2 days after application. The inoculated test leaf disks are incubated at 20° C. and 75% rh under a light regime of 12 h light/12 h darkness in a climate cabinet and the activity of a compound is assessed as percent disease control compared to untreated when an appropriate level of disease damage appears in untreated check leaf disks (5-7 days after application).

[3] = system: Mycosphaerella graminicola (Septoria tritici); assay: Mycosphaerella graminicola (Septoria tritici)/Liquid Culture (Septoria Blotch); assay type: cell-based; conditions: Zymoseptoria tritici; 200 ppm in the formulation; liquid culture, growth inhibition photometrically 4 to 5 days after application; compared to untreated control; read-out: disease control
Method: (§1) Mycosphaerella graminicola (Septoria tritici)/Liquid Culture (Septoria Blotch) Conidia of the fungus from cryogenic storage are directly mixed into nutrient broth (PDB potato dextrose broth). After placing a (DMSO) solution of test compound into a microtiter plate (96-well format), the nutrient broth containing the fungal spores is added. The test plates are incubated at 24° C. and the inhibition of growth is determined photometrically 4 to 5 days after application.

[4] = system: Botryotinia fuckeliana (Botrvtis cinerea); assay: Botryotinia fuckeliana (Botrvtis cinerea)/Liquid Culture (Gray Mould); assay type: cell-based; conditions: Botrytis cinerea; 200 ppm in the formulation; liquid culture, growth inhibition photometrically 3-4 days after application; compared to untreated control; read-out: disease control
Method: as §1, with “Botryotinia fuckeliana (Botrvtis cinerea)/Liquid” for “Mycosphaerella graminicola (Septoria tritici)/Liquid”, “(Gray Mould)” for “(Septoria Blotch)”, “(Vogels” for “(PDB potato dextrose”, “3-4” for “4 to 5”

[5] = system: Glomerella lagenarium (Colletotrichum lagenarium); assay: Glomerella lagenarium (Colletotrichum lagenarium)/Liquid Culture (Anthracnose); assay type: cell-based; conditions: Colletotrichum orbiculare; 200 ppm in the formulation; liquid culture, growth inhibition photometrically 3 to 4 days after application; compared to untreated control; read-out: disease control
Method: as §1, with “Glomerella lagenarium (Colletotrichum lagenarium)/Liquid” for “Mycosphaerella graminicola (Septoria tritici)/Liquid”, “(Anthracnose)” for “(Septoria Blotch)”, “measured” for “determined”, “photometrically 3 to” for “photometrically”, “4” for “4 to 5”

[6] = system: Mycosphaerella arachidis (Cercospora arachidicola); assay: Mycosphaerella arachidis (Cercospora arachidicola)/Liquid Culture (Early Leaf Spot); assay type: cell-based; conditions: 200 ppm in the formulation, liquid culture, growth inhibition photometrically 4-5 days after application, compared to untreated control, read-out: disease control
Method: as §1, with “arachidis (Cercospora arachidicola)/Liquid” for “graminicola (Septoria tritici)/Liquid”, “(Early Leaf Spot)” for “(Septoria Blotch)”, “4-5” for “4 to 5”

[7] = system: Monographella nivalis (Microdochium nivale); assay: Monographella nivalis (Microdochium nivale)/Liquid Culture (Foot Rot Cereals); assay type: cell-based; conditions: 200 ppm in the formulation, liquid culture, growth inhibition photometrically 4-5 days after application, compared to untreated control, read-out: disease control
Method: as §1, with “Monographella nivalis (Microdochium nivale)/Liquid” for “Mycosphaerella graminicola (Septoria tritici)/Liquid”, “(Foot Rot Cereals)” for “(Septoria Blotch)”, “4-5” for “4 to 5”

COc1ccnc(C(=O)N[C@@H](C)C(=O)O[C@@H](C)c2cccc(Oc3ccccc3)c2)c1O [I.aq.001, [(1S)-1-(3-phenoxyphenyl)ethyl] (2S)-2-[(3-hydroxy-4-methoxy-pyridine-2-carbonyl)amino] propanoate]
≥ 80%: pest or weed control at 200 ppm [1] | pest or weed control at 200 ppm [2] | inhibition of growth at 200 ppm [3] | inhibition of growth at 200 ppm [4] | inhibition of growth at 200 ppm [5]

COc1ccnc(C(=O)N[C@@H](C)C(=O)O[C@@H](C)c2ccc(Oc3ccc(Cl)cc3Cl)cc2)c1O [I.aw.001, [(1S)-1-[4-(2,4-dichlorophenoxy)phenyl]ethyl] (2S)-2-[(3-hydroxy-4-methoxy-pyridine-2-carbonyl)amino] propanoate]
≥ 80%: pest or weed control at 200 ppm [1] | pest or weed control at 200 ppm [2] | inhibition of growth at 200 ppm [3] | inhibition of growth at 200 ppm [6] | inhibition of growth at 200 ppm [5]

COc1ccnc(C(=O)N[C@@H](C)C(=O)O[C@@H](C)c2ccc(Oc3cccc(C(F)(F)F)c3)cc2)c1O [I.ax.001, [(1S)-1-[4-[3-(trifluoromethyl)phenoxy]phenyl]ethyl] (2S)-2-[(3-hydroxy-4-methoxy-pyridine-2-carbonyl)amino] propanoate]
≥ 80%: pest or weed control at 200 ppm [1] | pest or weed control at 200 ppm [2] | inhibition of growth at 200 ppm [3] | inhibition of growth at 200 ppm [6] | inhibition of growth at 200 ppm [5]

COc1ccnc(C(=O)N[C@@H](C)C(=O)O[C@@H](C)c2ccc(Oc3ccc(C(F)(F)F)cc3)cc2)c1O [I.ay.001, [(1S)-1-[4-[4-(trifluoromethyl)phenoxy]phenyl]ethyl] (2S)-2-[(3-hydroxy-4-methoxy-pyridine-2-carbonyl)amino] propanoate]
≥ 80%: pest or weed control at 200 ppm [1] | pest or weed control at 200 ppm [2] | inhibition of growth at 200 ppm [3] | inhibition of growth at 200 ppm [6] | inhibition of growth at 200 ppm [7] | inhibition of growth at 200 ppm [5]

COc1ccnc(C(=O)N[C@@H](C)C(=O)O[C@@H](C)c2ccc(Oc3ccc(C(F)(F)F)cc3Cl)cc2)c1O [I.az.001, [(1S)-1-[4-[2-chloro-4-(trifluoromethyl)phenoxy]phenyl]ethyl] (2S)-2-[(3-hydroxy-4-methoxy-pyridine-2-carbonyl)amino] propanoate]
≥ 80%: pest or weed control at 200 ppm [2] | inhibition of growth at 200 ppm [3] | inhibition of growth at 200 ppm [6] | inhibition of growth at 200 ppm [5]

COc1cc(-c2ccc([C@H](C)OC(=O)[C@H](C)NC(=O)c3nccc(OC)c3O)cc2)ccn1 [I.ba.001, [(1S)-1-[4-(2-methoxy-4-pyridyl)phenyl]ethyl] (2S)-2-[(3-hydroxy-4-methoxy-pyridine-2-carbonyl)amino] propanoate]
≥ 80%: pest or weed control at 200 ppm [1] | pest or weed control at 200 ppm [2] | inhibition of growth at 200 ppm [3] | inhibition of growth at 200 ppm [6] | inhibition of growth at 200 ppm [7] | inhibition of growth at 200 ppm [5]

COc1ccnc(C(=O)N[C@@H](C)C(=O)O[C@@H](C)c2ccc(-c3ccccc3)cc2)c1OC(C)=O [I.d.019, [(1S)-1-(4-phenylphenyl)ethyl] (2S)-2-[(3-acetoxy-4-methoxy-pyridine-2-carbonyl)amino] propanoate]
≥ 80%: pest or weed control at 200 ppm [1] | pest or weed control at 200 ppm [2] | inhibition of growth at 200 ppm [3]

COc1ccnc(C(=O)N[C@@H](C)C(=O)O[C@@H](C)c2ccc(-c3ccccc3C)cc2)c1O [I.h.001, [(1S)-1-[4-(o-tolyl)phenyl]ethyl] (2S)-2-[(3-hydroxy-4-methoxy-pyridine-2-carbonyl)amino] propanoate]
≥ 80%: pest or weed control at 200 ppm [1] | pest or weed control at 200 ppm [2] | inhibition of growth at 200 ppm [3] | inhibition of growth at 200 ppm [4] | inhibition of growth at 200 ppm [6] | inhibition of growth at 200 ppm [7] | inhibition of growth at 200 ppm [5]

CCc1ccccc1-c1ccc([C@H](C)OC(=O)[C@H](C)NC(=O)c2nccc(OC)c2O)cc1 [I.i.001, [(1S)-1-[4-(2-ethylphenyl)phenyl]ethyl] (2S)-2-[(3-hydroxy-4-methoxy-pyridine-2-carbonyl)amino] propanoate]
≥ 80%: pest or weed control at 200 ppm [1] | pest or weed control at 200 ppm [2] | inhibition of growth at 200 ppm [3] | inhibition of growth at 200 ppm [6] | inhibition of growth at 200 ppm [5]

COc1ccnc(C(=O)N[C@@H](C)C(=O)O[C@@H](C)c2ccc(-c3ccccc3COC(C)(C)C)cc2)c1O [I.k.001, [(1S)-1-[4-[2-(tert-butoxymethyl)phenyl]phenyl]ethyl] (2S)-2-[(3-hydroxy-4-methoxy-pyridine-2-carbonyl)amino] propanoate]
≥ 80%: pest or weed control at 200 ppm [1] | pest or weed control at 200 ppm [2] | inhibition of growth at 200 ppm [3] | inhibition of growth at 200 ppm [4] | inhibition of growth at 200 ppm [6] | inhibition of growth at 200 ppm [5]

COc1ccnc(C(=O)N[C@@H](C)C(=O)O[C@@H](C)c2ccc(-c3cccc(Cl)c3)cc2)c1O [I.r.001, [(1SS)-1-[4-(3-chlorophenyl)phenyl]ethyl] (2S)-2-[(3-hydroxy-4-methoxy-pyridine-2-carbonyl)amino] propanoate]
≥ 80%: pest or weed control at 200 ppm [1] | inhibition of growth at 200 ppm [3] | inhibition of growth at 200 ppm [4] | inhibition of growth at 200 ppm [6] | inhibition of growth at 200 ppm [7] | inhibition of growth at 200 ppm [5]

COc1ccnc(C(=O)N[C@@H](C)C(=O)O[C@@H](C)c2ccc(-c3ccc(Cl)cc3)cc2)c1O [I.u.001, [(1S)-1-[4-(4-chlorophenyl)phenyl]ethyl] (2S)-2-[(3-hydroxy-4-methoxy-pyridine-2-carbonyl)amino] propanoate]
≥ 80%: pest or weed control at 200 ppm [1] | inhibition of growth at 200 ppm [3] | inhibition of growth at 200 ppm [4] | inhibition of growth at 200 ppm [6] | inhibition of growth at 200 ppm [7] | inhibition of growth at 200 ppm [5]

COc1ccnc(C(=O)N[C@@H](C)C(=O)O[C@@H](C)c2ccc(-c3ccc(Br)cc3)cc2)c1OC(C)=O [I.v.019, [(1S)-1-[4-(4-bromophenyl)phenyl]ethyl] (2S)-2-[(3-acetoxy-4-methoxy-pyridine-2-carbonyl)amino] propanoate]
≥ 80%: pest or weed control at 200 ppm [1] | pest or weed control at 200 ppm [2] | inhibition of growth at 200 ppm [3] | inhibition of growth at 200 ppm [6] | inhibition of growth at 200 ppm [7]

COc1ccnc(C(=O)N[C@@H](C)C(=O)O[C@@H](C)c2ccc(-c3ccc(C)cc3)cc2)c1O [I.w.001, [(1S)-1-[4-(p-tolyl)phenyl]ethyl] (2S)-2-[(3-hydroxy-4-methoxy-pyridine-2-carbonyl)amino] propanoate]
≥ 80%: pest or weed control at 200 ppm [1] | pest or weed control at 200 ppm [2] | inhibition of growth at 200 ppm [3] | inhibition of growth at 200 ppm [6] | inhibition of growth at 200 ppm [7] | inhibition of growth at 200 ppm [5]

COc1ccnc(C(=O)N[C@@H](C)C(=O)O[C@@H](C)c2ccc(-c3ccc(C(F)(F)F)cc3)cc2)c1O [I.x.001, [(1S)-1-[4-[4-(trifluoromethyl)phenyl]phenyl]ethyl] (2S)-2-[(3-hydroxy-4-methoxy-pyridine-2-carbonyl)amino] propanoate]
≥ 80%: pest or weed control at 200 ppm [1] | inhibition of growth at 200 ppm [3] | inhibition of growth at 200 ppm [4] | inhibition of growth at 200 ppm [6] | inhibition of growth at 200 ppm [7] | inhibition of growth at 200 ppm [5]
